One test has as its target T1, CYP2D6 (Homo sapiens, UniProt P10635).
T1 construct: purchased Promega
As to the kind of experiment: Biochemical assay for CYP enzyme inhibition, P450-Glo CYP2D6 Screening System. The class given is in vitro ADME. As to the method:
Test Example 5: Biochemical Assay for CYP Enzyme (Cytochrome P450) Inhibition
P450-Glo™ CYP2D6 Screening System, (Promega);
BMG PHERAstar FS Luminescent.
The experiments were carried out separately according to the instructions of the kits. The steps were as follows:
3.2. Inhibition Against CYP2D6:
Test group: The test compounds at different concentrations were added into a microplate, and Luciferin-ME EGE (3 μM), K3PO4 (100 mM), and CYP2D6 (5 nM) were added into each well, and pre-incubated at room temperature for 10 min. Thereafter, an NADPH regeneration system was added. The mixture was reacted at 37° C. for 30 min. Finally, an equal volume of detection buffer was added and incubated at room temperature for 20 min, followed by chemiluminescence detection.
Negative control group: The experimental method for the negative control group was the same as that for the test group, except that the test compound was not added.
Blank control group: The experimental method for the blank control group was the same as that for the test group, except that the test compound was not added and that CYP2D6 was replaced with CYP2D6 Membrance (5 nM).
Percentage inhibition=(1−(the chemiluminescent signal value of the test compound group at a certain test concentration−the chemiluminescent signal value of the blank control group)/(the chemiluminescent signal value of the negative control group−the chemiluminescent signal value of the blank control group))×100%.
When the percentage inhibition was between 30% and 80%, a single value or a value range of the half maximal inhibitory concentration (IC50) of the compound against the CYP enzyme was estimated based on the following equation: IC50=X×(1−percentage inhibition)/percentage inhibition, wherein X was the test concentration of the compound.

A further test addresses T2, hERG (Homo sapiens, UniProt Q12809).
T2 construct: purchased ThermoFisher
The experiment in a line: Biochemical assay for hERG inhibition (Predictor hERG Fluorescence Polarization Assay Kit). Format: binding. The protocol: Test Example 3: Biochemical Assay for hERG Inhibition
kit: Predictor™ hERG Fluorescence Polarization Assay Kit (ThermoFisher) containing:
Compound E4031 as a positive control;
tracer concentration: 1 nM;
incubation duration: 2 hours;
parameters for microplate reader: BMG PHERAstar FS fluorescence microplate reader.
Test group: The test compounds at different concentrations were added into a microplate containing hERG cell membrane, and the tracer with a high affinity for hERG was then added into each well. The microplate was incubated at 25° C. for 2 hours before detection of the change in fluorescence polarization value (mP) (excitation wavelength: 540 nm; emission wavelength: 590 nm) using a multi-mode microplate reader.
Positive control group: The experimental method for the positive control group was the same as that for the test group, except that the test compound was replaced with 30 μM Compound E4031.
Blank control group: The experimental method for the blank control group was the same as that for the test group, except that the test compound was replaced with the hERG buffer and that the hERG cell membrane was not added.
Based on the data ratios, the percentage inhibition (%) of the compounds of the present disclosure against hERG at different concentrations was calculated and the range of the half maximal inhibitory concentration (IC50) of the compounds was determined. Percentage inhibition (%)=(1−(mP of the test compound−mP of the positive control group)/(mP of the blank control group−mP of the positive control group))×100%.

Test [1] concerns the target T3, recombinant full-length human PTPN11 (SHP2) (Homo sapiens, UniProt Q06124).
T3 construct: recombinant full-length human PTPN11 (SHP2), active (SignalChem); purchased SignalChem
T3 sequence (Q06124 1-593): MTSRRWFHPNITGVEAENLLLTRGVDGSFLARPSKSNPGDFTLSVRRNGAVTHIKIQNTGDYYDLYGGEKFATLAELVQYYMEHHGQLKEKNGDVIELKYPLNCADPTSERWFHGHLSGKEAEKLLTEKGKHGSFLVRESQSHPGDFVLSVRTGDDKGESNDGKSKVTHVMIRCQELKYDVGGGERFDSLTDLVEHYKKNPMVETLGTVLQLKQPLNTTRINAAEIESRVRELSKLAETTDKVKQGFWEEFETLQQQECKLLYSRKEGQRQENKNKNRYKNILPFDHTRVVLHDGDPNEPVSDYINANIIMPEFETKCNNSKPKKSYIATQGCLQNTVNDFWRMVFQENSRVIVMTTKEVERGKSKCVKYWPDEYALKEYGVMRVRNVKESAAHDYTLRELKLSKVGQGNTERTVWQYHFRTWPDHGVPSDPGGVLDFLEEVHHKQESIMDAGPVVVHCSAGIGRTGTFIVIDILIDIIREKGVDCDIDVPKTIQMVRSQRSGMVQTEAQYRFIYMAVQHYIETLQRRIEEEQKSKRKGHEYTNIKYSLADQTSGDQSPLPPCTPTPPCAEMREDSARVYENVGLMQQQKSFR
As to the kind of experiment: Inhibition of in vitro enzyme activity of SHP2 (DiFMUP fluorescence endpoint assay). The class given is biochemical. Particulars: SHP2 0.5 nM, DiFMUP 200 μM, IRS-1 0.5 μM; 60 min incubation. The protocol: Test Example 1: Experiment on the Inhibition of In Vitro Enzyme Activity of SHP2 (Protein Phosphatase)
phosphatase: recombinant full-length human PTPN11 (SHP2), active (SignalChem);
substrate: 6,8-difluoro-4-methylumbelliferyl phosphate (DiFMUP) (Invitrogen);
activating peptide: IRS1_pY1172(dPEG8)pY1222 (IRS1) (BPS Bioscience);
terminator: bpv(phen) (bpv) (Abcam).
SHP2 concentration: 0.5 nM;
DiFMUP concentration: 200 μM;
IRS-1 concentration: 0.5 μM;
bpv concentration: 160 μM;
buffer systems: 60 mM Hepes pH 7.2; 75 mM NaCl; 75 mM KCl; 0.05% surfactant P20; 1 mM EDTA; 5 mM DTT;
incubation duration of compound and enzyme: 60 minutes;
reaction time of enzyme and substrate: 30 minutes;
parameters for microplate reader: BMG PHERAstar fluorescence microplate reader at an excitation wavelength of 340 nm and an emission wavelength of 450 nm.
Test group: A mixture of the test compound and the phosphatase SHP2 together with the activating peptide IRS-1 were incubated in the buffer system at room temperature for 60 minutes. The substrate DiFMUP was added to initiate the reaction and incubated at room temperature for 30 minutes. Thereafter, bpv was added to terminate the reaction. The reaction plate was placed in the microplate reader, and the fluorescence intensities of the wells in the plate were measured using an endpoint assay.
Negative group: The experimental method for the negative group was the same as that for the test group, except that the test compound was substituted with 0.05% aqueous solution of DMSO.
Blank group: The experimental method for the blank group was the same as that for the test group, except that the test compound was substituted with 0.05% aqueous solution of DMSO and that SHP2 was not added.
The relative inhibitory activity was calculated for the test group at each concentration based on the following equation: inhibition rate (%)=100%−(the fluorescence intensity of the test group−the fluorescence intensity of the blank group)/(the fluorescence intensity of the negative group−the fluorescence intensity of the blank group)×100%. The half maximal inhibitory concentration (IC50) of the compound was calculated by fitting the curve according to the four-parameter logistic model.

Where [2] appears, read: estimated from percentage inhibition, read-out: IC50 (μM) CYP2D6.

What is called IC50 is the point on the concentration scale where inhibition reaches its midpoint.

Molecules are shown by their SMILES. Like-named read-outs stand apart in the source and are kept apart here.

T1 sequence (P10635 whole entry): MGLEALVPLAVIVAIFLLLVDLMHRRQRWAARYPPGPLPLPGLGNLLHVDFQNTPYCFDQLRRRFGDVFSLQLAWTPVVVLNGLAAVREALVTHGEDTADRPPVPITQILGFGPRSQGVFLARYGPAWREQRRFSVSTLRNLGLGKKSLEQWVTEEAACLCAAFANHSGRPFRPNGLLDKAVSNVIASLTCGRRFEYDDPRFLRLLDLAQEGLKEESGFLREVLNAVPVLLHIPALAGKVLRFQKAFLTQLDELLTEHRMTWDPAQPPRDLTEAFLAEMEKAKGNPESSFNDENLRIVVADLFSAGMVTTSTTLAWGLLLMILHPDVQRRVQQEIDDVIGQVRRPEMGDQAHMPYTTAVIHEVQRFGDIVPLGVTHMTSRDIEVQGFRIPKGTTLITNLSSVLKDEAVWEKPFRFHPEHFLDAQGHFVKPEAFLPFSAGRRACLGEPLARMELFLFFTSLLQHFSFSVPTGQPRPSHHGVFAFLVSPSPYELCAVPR
T2 sequence (Q12809 whole entry): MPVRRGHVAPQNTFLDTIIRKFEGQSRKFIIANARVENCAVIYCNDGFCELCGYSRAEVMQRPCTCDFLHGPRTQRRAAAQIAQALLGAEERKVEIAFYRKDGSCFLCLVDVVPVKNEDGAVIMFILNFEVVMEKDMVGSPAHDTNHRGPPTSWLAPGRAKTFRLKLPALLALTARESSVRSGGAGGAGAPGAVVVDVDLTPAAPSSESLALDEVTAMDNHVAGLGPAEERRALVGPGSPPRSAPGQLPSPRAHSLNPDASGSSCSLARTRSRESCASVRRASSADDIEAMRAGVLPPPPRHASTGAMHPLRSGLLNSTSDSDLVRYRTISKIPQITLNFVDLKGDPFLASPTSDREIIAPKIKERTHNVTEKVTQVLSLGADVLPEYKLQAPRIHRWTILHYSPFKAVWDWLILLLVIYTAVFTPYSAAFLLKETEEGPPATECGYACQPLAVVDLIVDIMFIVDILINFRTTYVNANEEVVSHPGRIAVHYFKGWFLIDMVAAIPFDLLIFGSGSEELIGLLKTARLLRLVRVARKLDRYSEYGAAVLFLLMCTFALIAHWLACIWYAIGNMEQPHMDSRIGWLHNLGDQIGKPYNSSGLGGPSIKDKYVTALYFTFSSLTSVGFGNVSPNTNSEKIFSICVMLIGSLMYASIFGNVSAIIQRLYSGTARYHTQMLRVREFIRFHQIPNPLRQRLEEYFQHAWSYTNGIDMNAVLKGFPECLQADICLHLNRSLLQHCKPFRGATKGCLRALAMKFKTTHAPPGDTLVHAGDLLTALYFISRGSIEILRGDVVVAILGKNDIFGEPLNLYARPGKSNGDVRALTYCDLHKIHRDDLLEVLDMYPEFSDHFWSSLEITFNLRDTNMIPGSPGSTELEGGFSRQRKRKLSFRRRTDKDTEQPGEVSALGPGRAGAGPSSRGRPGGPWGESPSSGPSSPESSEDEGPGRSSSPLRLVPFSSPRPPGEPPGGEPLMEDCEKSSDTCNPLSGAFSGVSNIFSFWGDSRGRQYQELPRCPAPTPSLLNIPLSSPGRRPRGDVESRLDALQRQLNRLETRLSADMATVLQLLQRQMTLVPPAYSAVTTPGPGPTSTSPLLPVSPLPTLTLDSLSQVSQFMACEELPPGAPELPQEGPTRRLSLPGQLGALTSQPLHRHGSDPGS

In the case of `C[C@@H]1OCC2(CCN(c3ncc(Sc4ccnc(NCC5(O)CC5)c4Cl)nc3CO)CC2)[C@@H]1N` [Example 15, 1-((4-(5-((3S,4S)-4-amino-3-methyl-2-oxa-8-azaspiro[4.5]decan-8-yl)-6-(hydroxymethyl)pyrazin-2-ylthio)-3-chloropyridin-2-ylamino)methyl)cyclopropan-1-ol], the results for the IC50 (on CYP2D6; on hERG; in test [1]) were more than 10 µM, more than 10000 nM and 2.4 nM, respectively.
With `Cc1nc(N2CCC3(CC2)CO[C@@H](C)[C@H]3N)c(CO)nc1Sc1ccnc(N2CC(CS(C)(=O)=O)C2)c1Cl` [Example 25, (3-((3S,4S)-4-amino-3-methyl-2-oxa-8-azaspiro[4.5]decan-8-yl)-6-(3-chloro-2-(3-(methylsulfonylmethyl)azetidin-1-yl)pyridin-4-ylthio)-5-methylpyrazin-2-yl)methanol], the IC50 on CYP2D6 is more than 10 µM; on hERG, more than 10000 nM; in test [1], 7 nM.
As to `CC(O)C1CN(c2nccc(Sc3cnc(N4CCC5(CC4)CO[C@@H](C)[C@H]5N)c(CO)n3)c2Cl)C1` (stereo partly drawn) [Example 17, 1-(1-(4-(5-((3S,4S)-4-amino-3-methyl-2-oxa-8-azaspiro[4.5]decan-8-yl)-6-(hydroxymethyl)pyrazin-2-ylthio)-3-chloropyridin-2-yl)azetidin-3-yl)ethan-1-ol], the IC50 on CYP2D6 is more than 10 µM; in test [1], 2.5 nM.
In the case of `CC(C)(O)C1CN(c2nccc(Sc3cnc(N4CCC5(CC4)Cc4ncccc4[C@H]5N)c(CO)n3)c2Cl)C1` [Example 43, (S)-2-(1-(4-(5-(5-amino-5,7-dihydrospiro[cyclopenta[b]pyridine-6,4′-piperidin]-1′-yl)-6-(hydroxymethyl)pyrazin-2-ylthio)-3-chloropyridin-2-yl)azetidin-3-yl)propan-2-ol], the IC50 was more than 10 µM at CYP2D6 (setting [2]) and 2.6 nM in test [1].
Take `C[C@@H]1OCC2(CCN(c3ncc(Sc4ccnc(N5CC(CO)(CF)C5)c4Cl)nc3CO)CC2)[C@@H]1N` [Example 42, (3-((3S,4S)-4-amino-3-methyl-2-oxa-8-azaspiro[4.5]decan-8-yl)-6-(3-chloro-2-(3-(fluoromethyl)-3-(hydroxymethyl)azetidin-1-yl)pyridin-4-ylthio)pyrazin-2-yl)methanol]: the 50% inhibitory concentration (IC50) on CYP2D6 (setting [2]) was more than 10 µM; at hERG it was more than 10000 nM; in test [1], 10.2 nM.
Take `C[C@@H]1OCC2(CCN(c3ncc(Sc4ccnc(N5CC(CC#N)C5)c4Cl)nc3CO)CC2)[C@@H]1N` [Example 5, 2-(1-(4-(5-((3S,4S)-4-amino-3-methyl-2-oxa-8-azaspiro[4.5]decan-8-yl)-6-(hydroxymethyl)pyrazin-2-ylthio)-3-chloropyridin-2-yl)azetidin-3-yl)acetonitrile]: the half-inhibitory concentration (IC50) at CYP2D6 was more than 10 µM; in test [1] it was 1.22 nM.
`C[C@@H]1OCC2(CCN(c3ncc(Sc4ccnc(N5CCCC5CC(N)=O)c4Cl)nc3CO)CC2)[C@@H]1N` (stereo partly drawn) [Example 19, 2-(1-(4-(5-((3S,4S)-4-amino-3-methyl-2-oxa-8-azaspiro[4.5]decan-8-yl)-6-(hydroxymethyl)pyrazin-2-ylthio)-3-chloropyridin-2-yl)pyrrolidin-2-yl)acetamide]: the 50% inhibitory concentration (IC50) was more than 10 µM on CYP2D6 (setting [2]), more than 10000 nM on hERG and 1.5 nM in test [1].
With `COCC1CN(c2nccc(Sc3cnc(N4CCC5(CC4)CO[C@@H](C)[C@H]5N)c(CO)n3)c2Cl)C1` [Example 21, (3-((3S,4S)-4-amino-3-methyl-2-oxa-8-azaspiro[4.5]decan-8-yl)-6-(3-chloro-2-(3-(methoxymethyl)azetidin-1-yl)pyridin-4-ylthio)pyrazin-2-yl)methanol], the IC50 against CYP2D6 was more than 10 µM; in test [1], 1.15 nM.
For `C[C@@H]1OCC2(CCN(c3ncc(Sc4ccnc(N5CC(C#N)(CO)C5)c4Cl)nc3CO)CC2)[C@@H]1N` [Example 47, 1-(4-(5-((3S,4S)-4-amino-3-methyl-2-oxa-8-azaspiro[4.5]decan-8-yl)-6-(hydroxymethyl)pyrazin-2-ylthio)-3-chloropyridin-2-yl)-3-(hydroxymethyl)azetidine-3-carbonitrile], the figures for the IC50 (on CYP2D6; at hERG; in test [1]) were more than 10 µM, more than 10000 nM and 3.2 nM, respectively.
On to `Cc1nc(N2CCC3(CC2)CO[C@@H](C)[C@H]3N)c(CO)nc1Sc1ccnc(N2CCCC2CO)c1Cl` (stereo partly shown) [Example 1], for which the IC50 against CYP2D6 is more than 10 µM; in test [1] it was 6.03 nM.
For `CC(C)(O)C1CN(c2nccc(Sc3cnc(N4CCC5(CC4)Oc4ccccc4[C@H]5N)c(CO)n3)c2Cl)C1` [Example 22, (R)-2-(1-(4-(5-(3-amino-3H-spiro[benzofuran-2,4′-piperidin]-1′-yl)-6-(hydroxymethyl)pyrazin-2-ylthio)-3-chloropyridin-2-yl)azetidin-3-yl)propan-2-ol], the IC50 on CYP2D6 (setting [2]) was more than 10 µM; in test [1], 4.3 nM.
Taken in the same sequence, the figures for `CC(C)(O)C1CN(c2nccc(Sc3cnc(N4CCC5(CC4)Cc4ccccc4[C@H]5N)c(CO)n3)c2Cl)C1` [Example 23, (S)-2-(1-(4-(5-(1-amino-1,3-dihydrospiro[indene-2,4′-piperidin]-1′-yl)-6-(hydroxymethyl)pyrazin-2-ylthio)-3-chloropyridin-2-yl)azetidin-3-yl)propan-2-ol] were more than 10 µM and 1.9 nM.
For `C[C@@H]1OCC2(CCN(c3ncc(Sc4ccnc(N5CC(CO)C5)c4Cl)nc3CO)CC2)[C@@H]1N` [Example 6, (3-((3S,4S)-4-amino-3-methyl-2-oxa-8-azaspiro[4.5]decan-8-yl)-6-(3-chloro-2-(3-(hydroxymethyl)azetidin-1-yl)pyridin-4-ylthio)pyrazin-2-yl)methanol], the IC50 was more than 10 µM at CYP2D6 and 1.76 nM in test [1].
